Laboratory results as given in paper PMC11252457 (Acta Pharmaceutica Sinica. B, 2024).
Several values for one entry are separate records, joined by “and”; a condition that tells them apart may be missing. Identical values can stand only once. Like-named read-outs stand apart in the source and are kept apart here.

Legend:
[1] = system: HIV-1 RES056 (K103N/Y181C); assay: microbe, parasite or virus in culture; type: cell-based; settings: for EC50: Human immunodeficiency virus 1, MT4, read-out: EC50 RES056; for SI RES056: ratio of CC50/EC50, RES056
Aqueous solubility = type: physicochemical
[2] = system: HIV-1 double mutant strain F227L/V106A; assay: microbe, parasite or virus in culture; type: cell-based; settings: for EC50: Human immunodeficiency virus 1, MT4, read-out: EC50 F227L/V106A
[3] = system: HIV-1 mutant strain L100I; assay: microbe, parasite or virus in culture; type: cell-based; settings: Human immunodeficiency virus 1, MT4, read-out: EC50 L100I
[4] = system: HIV-1 mutant strain K103N; assay: microbe, parasite or virus in culture; type: cell-based; settings: for EC50: Human immunodeficiency virus 1, MT4, read-out: EC50 K103N
[5] = Cytotoxicity in mock-infected MT-4 cells; settings: human
[6] = system: HIV-1 mutant strain Y188L; assay: microbe, parasite or virus in culture; type: cell-based; settings: for EC50: Human immunodeficiency virus 1, MT4, read-out: EC50 Y188L
[7] = system: HIV-1 mutant strain Y181C; assay: microbe, parasite or virus in culture; type: cell-based; settings: for EC50: Human immunodeficiency virus 1, MT4, read-out: EC50 Y181C
WT HIV-1 (IIIB) = assay: microbe, parasite or virus in culture; type: cell-based; settings: for EC50: Human immunodeficiency virus 1, IIIB, MT4, read-out: EC50 IIIB; for SI IIIB: ratio of CC50/EC50, IIIB
recombinant WT HIV-1 RT = recombinant WT HIV-1 RT (Human immunodeficiency virus type 1 group M subtype B, UniProt P03366); assay: HIV-1 RT inhibition assay; type: biochemical
[8] = system: HIV-1 mutant strain E138K; assay: microbe, parasite or virus in culture; type: cell-based; settings: for EC50: Human immunodeficiency virus 1, MT4, read-out: EC50 E138K
[9] = cited from earlier work

## Cc1cc(/C=C/C#N)cc(C)c1Oc1nc(NC2CCN(Cc3ccc(P(C)(C)=O)cc3)CC2)nc2ccsc12 [15a, (E)-3-(4-((2-((1-(4-(Dimethylphosphoryl)benzyl)piperidin-4-yl)amino)thieno[3,2-d]pyrimidin-4-yl)oxy)-3,5-dimethylphenyl)acrylonitrile]
[1]
  Fold more effective than ETR, RES056: 5.3 fold
  EC50: 15.8 ± 2.62 nM
Aqueous solubility; pH = 2.0
  Aqueous solubility: 283 µg/mL
Aqueous solubility; pH = 7.4
  Aqueous solubility: 27.6 µg/mL
[2]
  Fold higher activity than RPV, F227L/V106A: ~21.7 fold
  Fold more effective than ETR, F227L/V106A: 4.8 fold and ~4.84 fold
  EC50: 3.76 ± 0.46 nM
[3]
  EC50: 2.84 ± 0.09 nM
[4]
  Fold more effective than ETR, K103N: 2.4 fold and ~2.39 fold
  EC50: 1.27 ± 0.68 nM
[5]
  CC50 at 5 days: 117000 ± 23900 nM
[6]
  Fold higher activity than RPV, Y188L: about 9.97 fold
  Fold more effective than ETR, Y188L: ~2.78 fold
  EC50: 7.96 ± 3.89 nM
[7]
  Fold more effective than ETR, Y181C: 3.3 fold and ~3.31 fold
  EC50: 5.38 ± 1.61 nM
WT HIV-1 (IIIB)
  Fold more effective than ETR, WT: 1.6 fold
  EC50: 1.75 ± 0.64 nM
Recombinant WT HIV-1 RT
  IC50: 340 ± 90 nM
[8]
  Fold more effective than ETR, E138K: ~2.45 fold
  EC50: 4.28 ± 1.04 nM

## Cc1cc(C#N)cc(C)c1Oc1nc(Nc2ccc(C#N)cc2)nc(N)c1Br [ETR, etravirine, reference compound]
[1]
  EC50: 83.3 ± 21.1 nM
[2]
  EC50: 18.2 ± 12.4 nM
[3]
  EC50: 8.39 ± 3.4 nM
[4]
  EC50: 3.04 ± 0.9 nM
[5]
  CC50 at 5 days: > 4590 nM
[6]
  EC50: 22.1 ± 6.33 nM
[7]
  EC50: 17.8 ± 5.74 nM
WT HIV-1 (IIIB)
  EC50: 2.81 ± 1.08 nM
[9]; pH = 2.0
  Aqueous solubility: 127 µg/mL
[9]; pH = 7.0
  Aqueous solubility: <<1 μg/mL
[9]; pH = 7.4
  Aqueous solubility: <1 µg/mL
[8]
  EC50: 10.5 ± 2.49 nM

## COP(=O)(OC)c1ccc(CN2CCC(Nc3nc(Oc4c(C)cc(C#N)cc4C)c4sccc4n3)CC2)cc1 [9b, Dimethyl (4-((4-((4-(4-cyano-2,6-dimethylphenoxy)thieno[3,2-d]pyrimidin-2-yl)amino)piperidin-1-yl)methyl)phenyl)phosphonate]
[1]
  EC50: 193 ± 40.4 nM
  SI RES056: 282
[2]
  EC50: 8.14 ± 1.85 nM
[3]
  EC50: 10.8 ± 3.42 nM
[4]
  EC50: 3.72 ± 1.27 nM
[5]
  CC50 at 5 days: 54500 ± 1290 nM
[6]
  EC50: 9.95 ± 5.61 nM
[7]
  EC50: 15.3 ± 10.1 nM
WT HIV-1 (IIIB)
  EC50: 3.63 ± 1.15 nM
  SI IIIB: 15,014
Recombinant WT HIV-1 RT
  IC50: 350 ± 50 nM
[8]
  EC50: 14.9 ± 8.6 nM

## CCOP(=O)(OCC)c1ccc(CN2CCC(Nc3nc(Oc4c(C)cc(C#N)cc4C)c4sccc4n3)CC2)cc1 [9c, Diethyl (4-((4-((4-(4-cyano-2,6-dimethylphenoxy)thieno[3,2-d]pyrimidin-2-yl)amino)piperidin-1-yl)methyl)phenyl)phosphonate]
[1]
  EC50: 445 ± 109 nM
  SI RES056: 263
[2]
  EC50: 14.3 ± 4.55 nM
[3]
  EC50: 11.5 ± 3.27 nM
[4]
  EC50: ≤ 4.62 nM
[5]
  CC50 at 5 days: 117000 ± 7750 nM
[6]
  EC50: 17 ± 11 nM
[7]
  EC50: 13.2 ± 5.6 nM
WT HIV-1 (IIIB)
  EC50: 6.9 ± 1.92 nM
  SI IIIB: 16,957
Recombinant WT HIV-1 RT
  IC50: 760 ± 150 nM
[8]
  EC50: 12.3 ± 1.98 nM
